In PubChem BioAssay (NCI):
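Here, GI50 denotes the concentration required for 50% inhibition of growth. TGI: total growth inhibition.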

Columns and labels:
Assay in all cases: NCI-60 cell line screen, 384-well format
COLO 205 colon = system: COLO 205 colon
EKVX NSCLC = system: EKVX NSCLC
NCI-H23 lung = system: NCI-H23 lung
SR leukemia = system: SR leukemia
A498 renal = system: A498 renal
MDA-MB-231 breast = system: MDA-MB-231 breast
SF-295 CNS = system: SF-295 CNS
SF-539 CNS = system: SF-539 CNS
HCT-116 colon = system: HCT-116 colon
T-47D breast = system: T-47D breast
DU-145 prostate = system: DU-145 prostate
KM12 colon = system: KM12 colon
SNB-75 CNS = system: SNB-75 CNS
SK-OV-3 ovarian = system: SK-OV-3 ovarian
A549 NSCLC = system: A549 NSCLC
SNB-19 CNS = system: SNB-19 CNS
RPMI-8226 leukemia = system: RPMI-8226 leukemia
HL-60(TB) leukemia = system: HL-60(TB) leukemia
BT-549 breast = system: BT-549 breast
SK-MEL-5 melanoma = system: SK-MEL-5 melanoma
OVCAR-8 ovarian = system: OVCAR-8 ovarian
NCI-H226 lung = system: NCI-H226 lung
SN12C renal = system: SN12C renal
PC-3 prostate = system: PC-3 prostate
NCI-H322M lung = system: NCI-H322M lung
OVCAR-4 ovarian = system: OVCAR-4 ovarian
M14 melanoma = system: M14 melanoma
OVCAR-5 ovarian = system: OVCAR-5 ovarian
SK-MEL-2 melanoma = system: SK-MEL-2 melanoma
CAKI-1 renal = system: CAKI-1 renal
U251 glioblastoma = system: U251 glioblastoma
NCI-H522 lung = system: NCI-H522 lung
UACC-257 melanoma = system: UACC-257 melanoma
HS 578T breast = system: HS 578T breast
NCI-H460 NSCLC = system: NCI-H460 NSCLC
TK-10 renal = system: TK-10 renal
SK-MEL-28 melanoma = system: SK-MEL-28 melanoma
SW-620 colon = system: SW-620 colon
MDA-MB-435 melanoma = system: MDA-MB-435 melanoma
ACHN renal = system: ACHN renal
CCRF-CEM leukemia = system: CCRF-CEM leukemia
MALME-3M melanoma = system: MALME-3M melanoma
HCC-2998 colon = system: HCC-2998 colon
SF-268 CNS = system: SF-268 CNS
HOP-92 NSCLC = system: HOP-92 NSCLC
K-562 leukemia = system: K-562 leukemia
NCI/ADR-RES ovarian = system: NCI/ADR-RES ovarian
IGROV1 ovarian = system: IGROV1 ovarian
MCF7 breast = system: MCF7 breast
HT29 colon = system: HT29 colon
OVCAR-3 ovarian = system: OVCAR-3 ovarian
MOLT-4 leukemia = system: MOLT-4 leukemia
786-0 renal = system: 786-0 renal
HCT-15 colon = system: HCT-15 colon
MDA-MB-468 breast = system: MDA-MB-468 breast
HOP-62 NSCLC = system: HOP-62 NSCLC
UACC-62 melanoma = system: UACC-62 melanoma
RXF 393 renal = system: RXF 393 renal

In the case of `CCn1c(=O)c(-c2ccn[nH]2)cc2c(C)nc(N)nc21`, the GI50 (COLO 205 colon) was 2240 nM, the TGI (COLO 205 colon) was 7350 nM and the GI50 (EKVX NSCLC) was 911 nM. For the same compound, the TGI (EKVX NSCLC) was 4520 nM, the GI50 (NCI-H23 lung) was 1430 nM and the TGI (NCI-H23 lung) was over 30200 nM. The GI50 (SR leukemia) was 1750 nM, the TGI (SR leukemia) was 5000 nM and the GI50 (A498 renal) was 384 nM. The TGI (A498 renal) was 1970 nM, the GI50 (MDA-MB-231 breast) was 955 nM and the TGI (MDA-MB-231 breast) was over 23800 nM. The GI50 (SF-295 CNS) was 1580 nM, the TGI (SF-295 CNS) was 8640 nM and the GI50 (SF-539 CNS) was 2970 nM. It also gave a TGI (SF-539 CNS) of 21500 nM, a GI50 (HCT-116 colon) of 5310 nM and a TGI (HCT-116 colon) of over 100000 nM. For the same compound, the GI50 (T-47D breast) was 394 nM, the TGI (T-47D breast) was 2040 nM and the GI50 (DU-145 prostate) was 3380 nM. For the same compound, the TGI (DU-145 prostate) was over 100000 nM, the GI50 (KM12 colon) was 3390 nM and the TGI (KM12 colon) was 38600 nM. The GI50 (SNB-75 CNS) was 477 nM, the TGI (SNB-75 CNS) was 2400 nM and the GI50 (SK-OV-3 ovarian) was 562 nM. It also gave a TGI (SK-OV-3 ovarian) of 2930 nM, a GI50 (A549 NSCLC) of 2270 nM and a TGI (A549 NSCLC) of 9940 nM. The GI50 (SNB-19 CNS) was 18100 nM, the TGI (SNB-19 CNS) was over 100000 nM and the GI50 (RPMI-8226 leukemia) was 232 nM. The TGI (RPMI-8226 leukemia) was 646 nM, the GI50 (HL-60(TB) leukemia) was 840 nM and the TGI (HL-60(TB) leukemia) was 7000 nM. It also gave a GI50 (BT-549 breast) of 330 nM, a TGI (BT-549 breast) of 2760 nM and a GI50 (SK-MEL-5 melanoma) of 1160 nM. For the same compound, the TGI (SK-MEL-5 melanoma) was 4000 nM, the GI50 (OVCAR-8 ovarian) was 2750 nM and the TGI (OVCAR-8 ovarian) was over 60400 nM. It also gave a GI50 (NCI-H226 lung) of 1330 nM, a TGI (NCI-H226 lung) of 5510 nM and a GI50 (SN12C renal) of 1220 nM. It also gave a TGI (SN12C renal) of over 34500 nM, a GI50 (PC-3 prostate) of 369 nM and a TGI (PC-3 prostate) of 2570 nM. The GI50 (NCI-H322M lung) was 2180 nM, the TGI (NCI-H322M lung) was 10300 nM and the GI50 (OVCAR-4 ovarian) was 1390 nM. The TGI (OVCAR-4 ovarian) was 11200 nM, the GI50 (M14 melanoma) was 2200 nM and the TGI (M14 melanoma) was over 27400 nM. It also gave a GI50 (OVCAR-5 ovarian) of 1010 nM, a TGI (OVCAR-5 ovarian) of 6830 nM and a GI50 (SK-MEL-2 melanoma) of 3220 nM. The TGI (SK-MEL-2 melanoma) was 9870 nM, the GI50 (CAKI-1 renal) was 663 nM and the TGI (CAKI-1 renal) was 3780 nM. It also gave a GI50 (U251 glioblastoma) of 5620 nM, a TGI (U251 glioblastoma) of 97900 nM and a GI50 (NCI-H522 lung) of 671 nM. For the same compound, the TGI (NCI-H522 lung) was 4230 nM, the GI50 (UACC-257 melanoma) was 3780 nM and the TGI (UACC-257 melanoma) was 39400 nM. The GI50 (HS 578T breast) was 310 nM, the TGI (HS 578T breast) was 1660 nM and the GI50 (NCI-H460 NSCLC) was 883 nM. It also gave a TGI (NCI-H460 NSCLC) of 10800 nM, a GI50 (TK-10 renal) of 790 nM and a TGI (TK-10 renal) of 3500 nM. For the same compound, the GI50 (SK-MEL-28 melanoma) was 1140 nM, the TGI (SK-MEL-28 melanoma) was 7220 nM and the GI50 (SW-620 colon) was 3240 nM. It also gave a TGI (SW-620 colon) of 25700 nM, a GI50 (MDA-MB-435 melanoma) of 2710 nM and a TGI (MDA-MB-435 melanoma) of 19700 nM. The GI50 (ACHN renal) was 2000 nM, the TGI (ACHN renal) was 8330 nM and the GI50 (CCRF-CEM leukemia) was 434 nM. The TGI (CCRF-CEM leukemia) was 2540 nM, the GI50 (MALME-3M melanoma) was 456 nM and the TGI (MALME-3M melanoma) was 2030 nM. The GI50 (HCC-2998 colon) was 2190 nM, the TGI (HCC-2998 colon) was 13900 nM and the GI50 (SF-268 CNS) was 1890 nM. The TGI (SF-268 CNS) was 15600 nM, the GI50 (HOP-92 NSCLC) was 201 nM and the TGI (HOP-92 NSCLC) was 1310 nM. The GI50 (K-562 leukemia) was 6580 nM, the TGI (K-562 leukemia) was over 100000 nM and the GI50 (NCI/ADR-RES ovarian) was 1580 nM. The TGI (NCI/ADR-RES ovarian) was 8000 nM, the GI50 (IGROV1 ovarian) was 333 nM and the TGI (IGROV1 ovarian) was 1210 nM. It also gave a GI50 (MCF7 breast) of 511 nM, a TGI (MCF7 breast) of over 100000 nM and a GI50 (HT29 colon) of 2420 nM. It also gave a TGI (HT29 colon) of over 69500 nM, a GI50 (OVCAR-3 ovarian) of 853 nM and a TGI (OVCAR-3 ovarian) of 4460 nM. It also gave a GI50 (MOLT-4 leukemia) of 587 nM, a TGI (MOLT-4 leukemia) of 2160 nM and a GI50 ([…]-0 renal) of 2910 nM. For the same compound, the TGI (786-0 renal) was 15700 nM, the GI50 (HCT-15 colon) was 2360 nM and the TGI (HCT-15 colon) was over 100000 nM. For the same compound, the GI50 (MDA-MB-468 breast) was 358 nM, the TGI (MDA-MB-468 breast) was 1570 nM and the GI50 (HOP-62 NSCLC) was 1930 nM. The TGI (HOP-62 NSCLC) was 11600 nM, the GI50 (UACC-62 melanoma) was 1560 nM and the TGI (UACC-62 melanoma) was 10700 nM. For the same compound, the GI50 (RXF 393 renal) was 399 nM and the TGI (RXF 393 renal) was 1900 nM.
